Data: patent US8759536B2, “Rhodanine derivatives, method for preparing same, and pharmaceutical composition for the prevention or treatment of aids containing the rhodanine derivatives as active ingredients” (Avixgen Inc., priority 2010, dated 2014)

Each molecule was assayed on HIV (assay: Assay for inhibitory activity against HIV (p24 ELISA, infected MT-4 cells)). Conditions: Human immunodeficiency virus 1, MT4; MT-4 cells infected with pNL4-3-derived HIV; p24 ELISA after 48 + 48 hrs; read-out: Conc. for Inhibition of HIV Activity (IC50).
Assay type: cell-based
Experimental: The rhodanine derivatives of the present invention were assayed for inhibitory activity against HIV as follows.
A pNL4-3 vector carrying an HIV genome was transduced into 293FT cells. […] 293FT cells were seeded at a density of 3.0×10^5 cells/well into 6-well plates containing antibiotic-free DMEM supplemented with 10% FBS and grown for 48 hrs. Upon 90-95% confluency, the transduction was performed.
The DNA (pNL4-3) was added at a final concentration of 10 ng/mL to 250 μL of the reduced serum medium Opti-MEM I (GIBCO™, USA). Separately, 4 μL of Lipofectamine™ 2000 (Invitrogen, USA) was mixed with 250 μL of Opti-MEM I (GIBCO™), and incubated at room temperature for 5 min. The DNA (pNL4-3) was mixed at a ratio of 1:2 with the lipofectamine and reacted at room temperature for 20 min to form a DNA-lipofectamine complex. After removal of the medium from the cell culture, the mixture containing the DNA-lipofectamine complex was added to the cells and incubated for 4 hrs in a CO2 incubator. Then, the cell culture medium was replaced with a fresh antibiotic-free, 10% FBS-supplemented DMEM, followed by incubation for an additional 48 hrs. The HIV-infected cell culture was centrifuged at 1,500 rpm for 5 min to give a virus supernatant.
MT-4 cells were plated at a density of 1.0×10^6 cells/mL into 6-well plates containing RPMI supplemented with 10% FBS and incubated for 4 hrs before infection at a ratio of 1:1 with the virus supernatant. The cells were incubated for 48 hrs in a CO2 incubator, after which the culture medium was replaced with a fresh one. Again, incubation was continued for an additional 72 hrs to amplify the virus. After centrifugation at 1,500 rpm for 5 min, the virus supernatant thus obtained was examined for virus density using a Virononstika HIV-1 Antigen Microelisa system kit (bioMerieux, Inc. Netherland).
2. Assay for Inhibitory Activity Against HIV
The rhodanine derivatives prepared in Examples 1 to 38 were dissolved in DMSO to prepare respective 10 mM or 20 mM stocks, and stored at −20° C. The stocks were diluted to a starting concentration of 200 μM in DMSO before use in experiments.
MT-4 cells were suspended at a density of 4×10^5 cells in 200 μL of RPMI 1640 (Gibco, 10% FBS) per well of 24-well plates, and infected with 200 μL of a virus supernatant containing 2×10^5 pg/mL to give a total volume of 400 μL. After the stocks of the rhodanine derivatives were […] diluted to 200 μM in DMSO, 2 μL of each dilution was added to the cells to a final concentration of 1 μM or less. For a positive control, 10 μM AZT (azidothymidine, Sigma, USA) was used at a final concentration of 50 nM while DMSO was used at a final concentration of 0.5% as a negative control. The cells were cultured for 48 hrs in a CO2 incubator (37° C., 5% CO2), and the culture medium was replaced by RPMI 1640 containing the rhodanine derivative at a final concentration of 1 μM, followed by incubation for an additional 48 hrs. Virus soups were separated from cells by centrifugation at 1,500 rpm for 5 min and then at 13, 000 rpm for 5 min. ELISA for p24 concentrations was carried out using a Virononstika HIV-1 Antigen Microelisa system kit (bioMerieux, Inc. Netherland) to determine the inhibitory activity of each of the rhodanine derivatives against HIV.
For Cc1ccc(N2C(=O)/C(=C/c3ccc(-c4cccc([N+](=O)[O-])c4)o3)SC2=S)c(C)c1 [Example 1, 3-(2,4-Dimethyl-phenyl)-5-[5-(3-nitro-phenyl)-furan-2-ylmethylene]-2-thioxo-thiazolidin-4-one], the IC50 was 800 nM.
O=C1C(=Cc2ccc(-c3cc([N+](=O)[O-])ccc3Br)o2)SC(=S)N1c1ccc(I)cc1 [Example 16, 5-[5-(2-bromo-5-nitro-phenyl)-furan-2-ylmethylene]-3-(4-iodo-phenyl)-2-thioxo-thiazolidin-4-one] was tested, and the IC50 was 500 nM.
For O=C(O)CN1C(=O)/C(=C/c2ccc(-c3cccc([N+](=O)[O-])c3)o2)SC1=S [Example 38, {5-[5-(3-nitro-phenyl)-furan-2-ylmethylene]-4-oxo-2-thioxo-thiazolidin-3-yl}-acetic acid], the IC50 was 750 nM.
In the case of CC(=O)CCN1C(=O)/C(=C/c2ccc(-c3ccc(Br)cc3)o2)SC1=S [Example 5, 5-[5-(4-bromo-phenyl)-furan-2-ylmethylene]-3-(3-oxo-butyl)-2-thioxo-thiazolidin-4-one], the IC50 is reported as 1000 nM.
O=C1/C(=C/c2ccc(-c3ccc(Cl)cc3Cl)o2)SC(=S)N1c1cccc(F)c1 [Example 8, 5-[5-(2,4-dichloro-phenyl)-furan-2-ylmethylene]-3-(3-fluoro-phenyl)-2-thioxo-thiazolidin-4-one] gave an IC50 of 500 nM.
Work on CC(C)OC(=O)c1ccc(-c2ccc(/C=C3/SC(=S)NC3=O)o2)cc1 [Example 23, 4-[5-(4-oxo-2-thioxo-thiazolidin-5-ylidenemethyl)-furan-2-yl]-benzoic acid isopropylester] yielded an IC50 of 400 nM.
For COc1ccc(-c2ccc(/C=C3\SC(=S)N(CC(=O)O)C3=O)o2)c([N+](=O)[O-])c1 [Example 21, {5-[5-(4-methoxy-2-nitro-phenyl)-furan-2-ylmethylene]-4-oxo-2-thioxo-thiazolidin-3-yl}-acetic acid], the IC50 was 1000 nM.
With O=C1C(=Cc2ccc(-c3ccc([N+](=O)[O-])cc3)o2)SC(=S)N1c1cccc(F)c1 [Example 13, 3-(3-fluoro-phenyl)-5-[5-(4-nitro-phenyl)-furan-2-ylmethylene]-2-thioxo-thiazolidin-4-one] the IC50 was 500 nM.
CCCOC(=O)c1cc(-c2ccc(/C=C3/SC(=S)NC3=O)o2)ccc1Cl [Example 29, 2-chloro-5-[5-(4-oxo-2-thioxo-thiazolidin-5-ylidenemethyl)-furan-2-yl]-benzoic acid propyl ester] was tested, and the IC50 was 500 nM.
